Starred links: 1 amine or outer side, 2 acyl side, 3 side chain; linkers in the order of their positions; H or OH if unused. Non-standard residues stand in square brackets, D forms with d. Residues, ends and D or L forms follow the SMILES beside them. *: point of attachment. Pipz(1-CH2CO,4-CH2CH2NH) = O=C(CN1CCN(CCN[*:1])CC1)[*:2]; C18 diacid = O=C(O)CCCCCCCCCCCCCCCCC(=O)*; γGlu = O=C(O)[C@H](CCC(=O)[*:2])N[*:1]; 3Pal = N[C@@H](Cc1cccnc1)C(=O)O; 4Pal = N[C@@H](Cc1ccncc1)C(=O)O; NMeL = CN[C@@H](CC(C)C)C(=O)O; NMeA = CN[C@@H](C)C(=O)O; Nle = CCCC[C@H](N)C(=O)O; Sar = CNCC(=O)O
What was measured:
Format in all cases: cell-based
human NMUR1 receptor = biological target: T1, human NMUR1 receptor (Homo sapiens, UniProt Q9HB89); experiment: IP1 Gq HTRF assay, activation of human NMUR1 in buffer; conditions: CHO-K1 cells expressing human NMUR1, stimulation buffer with 0.1% BSA; read-out: EC50 (hNMUR1) buffer
T1 construct: expressed in transfected cells; host or cells: CHO-K1
T1 sequence (Q9HB89 1-426): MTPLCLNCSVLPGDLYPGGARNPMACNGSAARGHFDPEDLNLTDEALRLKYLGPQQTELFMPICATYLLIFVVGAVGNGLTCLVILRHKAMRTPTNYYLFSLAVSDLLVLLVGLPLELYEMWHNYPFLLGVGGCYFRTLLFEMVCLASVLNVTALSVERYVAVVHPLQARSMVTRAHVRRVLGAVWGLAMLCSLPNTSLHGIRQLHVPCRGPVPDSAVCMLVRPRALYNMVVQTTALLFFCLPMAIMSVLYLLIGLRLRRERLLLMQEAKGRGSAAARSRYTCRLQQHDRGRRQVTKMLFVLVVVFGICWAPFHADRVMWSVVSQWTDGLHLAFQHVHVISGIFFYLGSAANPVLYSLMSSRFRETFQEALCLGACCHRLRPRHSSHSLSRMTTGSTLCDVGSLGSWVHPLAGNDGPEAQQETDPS
Outline: (§1)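 CHO-K1 cells stably expressing human NMUR1 or NMUR2, seeded 24 h before assay, stimulated with peptide agonists (8-point dose-response, 1% DMSO final) in HEPES/HBSS buffer with 50 mM LiCl and 0.1% BSA, pH 7.4, 1 h at 37 °C. IP1 accumulation read by HTRF competition (665/620 nm); EC50 from 4-parameter sigmoidal fit.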

human NMUR2 receptor [1] = biological target: T2, human NMUR2 receptor (Homo sapiens, UniProt Q9GZQ4); experiment: IP1 Gq HTRF assay, activation of human NMUR2 in buffer; set-up: expressed in transfected cells; host or cells: CHO-K1; conditions: CHO-K1 cells expressing human NMUR2, stimulation buffer with 0.1% BSA; read-out: EC50 (hNMUR2) buffer
Outline: as §1

human NMUR2 receptor [2] = biological target: T2, human NMUR2 receptor; experiment: IP1 Gq HTRF assay, activation of human NMUR2 in human plasma; set-up: expressed in transfected cells; host or cells: CHO-K1; conditions: CHO-K1 cells expressing human NMUR2, 100% human plasma; read-out: EC50 (hNMUR2) human plasma
Outline: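 CHO-K1 cells stably expressing human NMUR2 exposed to peptide agonists (8-point dose-response) in 100% human plasma with 50 mM LiCl, 1% DMSO, for 1 h at 37° C. IP1 accumulation read by HTRF competition (665/620 nm ratio). EC50 from 4-parameter sigmoidal fit.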

T2 sequence (Q9GZQ4 whole entry): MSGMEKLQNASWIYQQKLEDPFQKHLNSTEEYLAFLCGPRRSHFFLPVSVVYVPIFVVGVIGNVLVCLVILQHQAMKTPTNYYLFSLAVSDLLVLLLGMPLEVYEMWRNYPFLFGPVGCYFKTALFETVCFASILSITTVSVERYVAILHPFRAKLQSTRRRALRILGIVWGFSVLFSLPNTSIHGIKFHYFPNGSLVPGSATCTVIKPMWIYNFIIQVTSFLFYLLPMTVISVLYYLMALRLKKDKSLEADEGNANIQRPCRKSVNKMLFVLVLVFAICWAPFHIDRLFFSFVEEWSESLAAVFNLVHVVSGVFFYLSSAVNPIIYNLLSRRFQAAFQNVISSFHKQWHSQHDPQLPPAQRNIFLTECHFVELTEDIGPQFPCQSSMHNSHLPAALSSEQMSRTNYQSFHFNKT

| Structure (SMILES) | EC50 (human NMUR1 receptor) [nM] | EC50 (human NMUR2 receptor [1]) [nM] | EC50 (human NMUR2 receptor [2]) [nM] |
| --- | --- | --- | --- |
| CCCC[C@H](NC(=O)[C@H](CC(C)C)N(C)C(=O)[C@H](Cc1ccccc1)NC(=O)[C@H](Cc1ccc(O)cc1)NC(=O)CN1CCN(CCNC(=O)CN(C)C(=O)CN(C)C(=O)CN(C)C(=O)CN(C)C(=O)CN(C)C(=O)CN(C)C(=O)CN(C)C(=O)CN(C)C(=O)CN(C)C(=O)CN(C)C(=O)CN(C)C(=O)CN(C)C(=O)CN(C)C(=O)CN(C)C(=O)CN(C)C(=O)CC[C@H](NC(=O)CC[C@H](NC(=O)CC[C@H](NC(=O)CCCCCCCCCCCCCCCCC(=O)O)C(=O)O)C(=O)O)C(=O)O)CC1)C(=O)N(C)[C@@H](CCCNC(=N)N)C(=O)N(C)[C@@H](C)C(=O)N[C@@H](CCCNC(=N)N)C(=O)NCC(N)=O [Compound 53, C18DA-gGlu3-Sar15-AEPipAc-Tyr-Phe-NMeLeu-Nle-NMeArg-NMeAla-Arg-Gly-NH2] (HELM PEPTIDE1{[O=C(O)CCCCCCCCCCCCCCCCC(=O)[*:2]].[gGlu].[gGlu].[gGlu].[Sar].[Sar].[Sar].[Sar].[Sar].[Sar].[Sar].[Sar].[Sar].[Sar].[Sar].[Sar].[Sar].[Sar].[Sar].[O=C(CN1CCN(CCN[*:1])CC1)[*:2]].Y.F.[meL].[Nle].[meR].[meA].R.G.[am]}$$$$V2.0) | 1300 | 4 | 24.9 |
| CCCC[C@H](NC(=O)[C@H](CC(C)C)N(C)C(=O)[C@H](Cc1ccccc1)NC(=O)[C@H](Cc1ccc(O)cc1)NC(=O)CN1CCN(C(=O)CN(C)C(=O)CN(C)C(=O)CN(C)C(=O)CN(C)C(=O)CN(C)C(=O)CN(C)C(=O)CN(C)C(=O)CN(C)C(=O)CN(C)C(=O)CN(C)C(=O)CN(C)C(=O)CN(C)C(=O)CN(C)C(=O)CN(C)C(=O)CN(C)C(=O)CC[C@H](NC(=O)CC[C@H](NC(=O)CC[C@H](NC(=O)CCCCCCCCCCCCCCCCC(=O)O)C(=O)O)C(=O)O)C(=O)O)CC1)C(=O)N[C@@H](CCCNC(=N)N)C(=O)N1CCC[C@H]1C(=O)N[C@@H](CCCNC(=N)N)C(=O)NCC(N)=O [Compound 75, C18DA-gGlu3-Sar15-PipAc-Tyr-Phe-NMeLeu-Nle-Arg-Pro-Arg-Gly-NH2] (HELM PEPTIDE1{[O=C(O)CCCCCCCCCCCCCCCCC(=O)[*:2]].[gGlu].[gGlu].[gGlu].[Sar].[Sar].[Sar].[Sar].[Sar].[Sar].[Sar].[Sar].[Sar].[Sar].[Sar].[Sar].[Sar].[Sar].[Sar].[O=C(CN1CCN([*:1])CC1)[*:2]].Y.F.[meL].[Nle].R.P.R.G.[am]}$$$$V2.0) | 130 | 0.7 | 3.5 |
| CCCC[C@H](NC(=O)[C@H](CC(C)C)N(C)C(=O)[C@H](Cc1ccccc1)NC(=O)[C@H](Cc1ccc(O)cc1)NC(=O)CN1CCN(CCNC(=O)CN(C)C(=O)CN(C)C(=O)CN(C)C(=O)CN(C)C(=O)CN(C)C(=O)CN(C)C(=O)CN(C)C(=O)CN(C)C(=O)CN(C)C(=O)CN(C)C(=O)CN(C)C(=O)CN(C)C(=O)CN(C)C(=O)CN(C)C(=O)CN(C)C(=O)CC[C@H](NC(=O)CC[C@H](NC(=O)CC[C@H](NC(=O)CCCCCCCCCCCCCCCCC(=O)O)C(=O)O)C(=O)O)C(=O)O)CC1)C(=O)N[C@@H](Cc1cccnc1)C(=O)N(C)[C@@H](C)C(=O)N[C@@H](CCCNC(=N)N)C(=O)NCC(N)=O [Compound 57, C18DA-gGlu3-Sar15-AEPipAc-Tyr-Phe-NMeLeu-Nle-3Pal-NMeAla-Arg-Gly-NH2] ({C18 diacid-γGlu-γGlu-γGlu}-[Sar][Sar][Sar][Sar][Sar][Sar][Sar][Sar][Sar][Sar][Sar][Sar][Sar][Sar][Sar][Pipz(1-CH2CO,4-CH2CH2NH)]YF[NMeL][Nle][3Pal][NMeA]RG-NH2) | > 1000 | 110 | 509 |
| CCCC[C@H](NC(=O)[C@H](CC(C)C)N(C)C(=O)[C@H](Cc1ccccc1)NC(=O)[C@H](Cc1ccc(O)cc1)NC(=O)CN1CCN(CCNC(=O)CN(C)C(=O)CN(C)C(=O)CN(C)C(=O)CN(C)C(=O)CN(C)C(=O)CN(C)C(=O)CN(C)C(=O)CN(C)C(=O)CN(C)C(=O)CN(C)C(=O)CN(C)C(=O)CN(C)C(=O)CN(C)C(=O)CN(C)C(=O)CN(C)C(=O)CC[C@H](NC(=O)CC[C@H](NC(=O)CC[C@H](NC(=O)CCCCCCCCCCCCCCCCC(=O)O)C(=O)O)C(=O)O)C(=O)O)CC1)C(=O)N[C@@H](Cc1ccncc1)C(=O)N1CCC[C@H]1C(=O)N[C@@H](CCCNC(=N)N)C(=O)NCC(N)=O [Compound 45, C18DA-gGlu3-Sar15-AEPipAc-Tyr-Phe-NMeLeu-Nle-4Pal-Pro-Arg-Gly-NH2] ({C18 diacid-γGlu-γGlu-γGlu}-[Sar][Sar][Sar][Sar][Sar][Sar][Sar][Sar][Sar][Sar][Sar][Sar][Sar][Sar][Sar][Pipz(1-CH2CO,4-CH2CH2NH)]YF[NMeL][Nle][4Pal]PRG-NH2) | > 1000 | 30 | 129 |
| CCCC[C@H](NC(=O)[C@H](CC(C)C)N(C)C(=O)[C@H](Cc1ccccc1)NC(=O)[C@H](Cc1ccc(O)cc1)NC(=O)CN1CCN(CCNC(=O)CN(C)C(=O)CN(C)C(=O)CN(C)C(=O)CN(C)C(=O)CN(C)C(=O)CN(C)C(=O)CN(C)C(=O)CN(C)C(=O)CN(C)C(=O)CN(C)C(=O)CN(C)C(=O)CN(C)C(=O)CN(C)C(=O)CN(C)C(=O)CN(C)C(=O)CC[C@H](NC(=O)CC[C@H](NC(=O)CC[C@H](NC(=O)CCCCCCCCCCCCCCCCCCC(=O)O)C(=O)O)C(=O)O)C(=O)O)CC1)C(=O)N(C)[C@@H](CCCNC(=N)N)C(=O)N(C)[C@@H](C)C(=O)N[C@@H](CCCNC(=N)N)C(=O)NCC(N)=O [Compound 36, C20DA-gGlu3-Sar15-AEPipAc-Tyr-Phe-NMeLeu-Nle-NMeArg-NMeAla-Arg-Gly-NH2] (HELM PEPTIDE1{[O=C(O)CCCCCCCCCCCCCCCCCCC(=O)[*:2]].[gGlu].[gGlu].[gGlu].[Sar].[Sar].[Sar].[Sar].[Sar].[Sar].[Sar].[Sar].[Sar].[Sar].[Sar].[Sar].[Sar].[Sar].[Sar].[O=C(CN1CCN(CCN[*:1])CC1)[*:2]].Y.F.[meL].[Nle].[meR].[meA].R.G.[am]}$$$$V2.0) | 1400 | 4.7 | 18.3 |
| CCCC[C@H](NC(=O)[C@H](CC(C)C)N(C)C(=O)[C@H](Cc1ccccc1)NC(=O)[C@H](Cc1ccc(O)cc1)NC(=O)CN1CCN(CCNC(=O)CN(C)C(=O)CN(C)C(=O)CN(C)C(=O)CN(C)C(=O)CN(C)C(=O)CN(C)C(=O)CN(C)C(=O)CN(C)C(=O)CN(C)C(=O)CN(C)C(=O)CN(C)C(=O)CN(C)C(=O)CN(C)C(=O)CN(C)C(=O)CN(C)C(=O)CC[C@H](NC(=O)CC[C@H](NC(=O)CC[C@H](NC(=O)CC[C@H](NC(=O)CCCCCCCCCCCCCCCCCCC(=O)O)C(=O)O)C(=O)O)C(=O)O)C(=O)O)CC1)C(=O)N[C@@H](CCCN)C(=O)N(C)[C@@H](C)C(=O)N[C@@H](CCCNC(=N)N)C(=O)NCC(N)=O [Compound 14, C20DA-gGlu4-Sar15-AEPipAc-Tyr-Phe-NMeLeu-Nle-Orn-NMeAla-Arg-Gly-NH2] (HELM PEPTIDE1{[O=C(O)CCCCCCCCCCCCCCCCCCC(=O)[*:2]].[gGlu].[gGlu].[gGlu].[gGlu].[Sar].[Sar].[Sar].[Sar].[Sar].[Sar].[Sar].[Sar].[Sar].[Sar].[Sar].[Sar].[Sar].[Sar].[Sar].[O=C(CN1CCN(CCN[*:1])CC1)[*:2]].Y.F.[meL].[Nle].[Orn].[meA].R.G.[am]}$$$$V2.0) | 1400 | 2.9 | 10.3 |
